Entries after “also recorded” stand apart in the source; their conditions may differ.
Tests used:
EGF binding site = molecular target: T1, EGF binding site (Rattus norvegicus, UniProt G3V6K6); assay: Inhibition of [125I]EGF binding (EGF inhibitor assay, NovaScreen); conditions: determined at 25 μM; rat liver membranes; result in words
T1 construct: Receptor source was rat liver membranes; tissue NovaScreen BioSciences; host or cells: rat liver membranes
Protocol: Identified compounds, representing various pharmacophore models, were tested for ability to inhibit EGFR at 25 μM.
AD4-compounds were identified using pharmacophore models (see Example 3, Example 4) and then were docked with the binding site of EGFR (SEQ ID NO: 1) that is recognized by defined CDRs of cetuximab. The inhibition of epidermal growth factor binding by AD4-compounds was then determined (NovaScreen BioSciences, Hanover, Md.). Inhibition of EGF binding was determined at 25 μM concentration.
Receptor source was rat liver membranes. The radioligand was [^125I]EGF ([…]) at a final ligand concentration of 0.36 nM. A non-specific determinant was used as EGF—[100 nM]. The reference compound and positive control was EGF. Reactions were carried out in 10 mM HEPES (pH 7.4) containing 0.1% BSA at 25° C. for 60 minutes. The reaction was terminated by rapid vacuum filtration onto glass fiber filters. Radioactivity trapped onto the filters was determined and compared to control values to ascertain any interactions of test compounds with the EGF binding site. The EGF inhibitor assays were modified from, for example, Mukku (1984) J. Biol. Chem. 259, 6543-6546; Duh et al. (1990) World J. Surgery 14, 410-418; Lokeshwar et al. (1989) J. Biol. Chem. 264(32), 19318-19326.

EGFR = molecular target: T2, EGFR (Homo sapiens, UniProt P00533); assay: Titration of known EGFR inhibitors in absence or presence of a fixed concentration of AD4 compound (% inhibition of EGFR); assay type: cell-based; conditions: Tykerb alone or in combination with the compound; result in words
T2 construct: A431 cells (ATCC # CRL-1555) were grown in Dulbecco's Modified Eagle Medium; host or cells: A431

[1] = test system: EGF receptor-mediated cell proliferation; assay: Combination studies (median effect analysis: IC50, CI, DRI) in cell proliferation assay (MTT assay); conditions: for CI @ ED90: Combination Index at 90% inhibition; for DRI @ ED97: Dose Reduction Index
Source text: Studies were initiated to evaluate the ability of various compounds disclosed herein to synergize with several compounds known to inhibit the function of the EGF receptor in a cell proliferation assay (MTT assay).

T1 sequence (G3V6K6 25-1209): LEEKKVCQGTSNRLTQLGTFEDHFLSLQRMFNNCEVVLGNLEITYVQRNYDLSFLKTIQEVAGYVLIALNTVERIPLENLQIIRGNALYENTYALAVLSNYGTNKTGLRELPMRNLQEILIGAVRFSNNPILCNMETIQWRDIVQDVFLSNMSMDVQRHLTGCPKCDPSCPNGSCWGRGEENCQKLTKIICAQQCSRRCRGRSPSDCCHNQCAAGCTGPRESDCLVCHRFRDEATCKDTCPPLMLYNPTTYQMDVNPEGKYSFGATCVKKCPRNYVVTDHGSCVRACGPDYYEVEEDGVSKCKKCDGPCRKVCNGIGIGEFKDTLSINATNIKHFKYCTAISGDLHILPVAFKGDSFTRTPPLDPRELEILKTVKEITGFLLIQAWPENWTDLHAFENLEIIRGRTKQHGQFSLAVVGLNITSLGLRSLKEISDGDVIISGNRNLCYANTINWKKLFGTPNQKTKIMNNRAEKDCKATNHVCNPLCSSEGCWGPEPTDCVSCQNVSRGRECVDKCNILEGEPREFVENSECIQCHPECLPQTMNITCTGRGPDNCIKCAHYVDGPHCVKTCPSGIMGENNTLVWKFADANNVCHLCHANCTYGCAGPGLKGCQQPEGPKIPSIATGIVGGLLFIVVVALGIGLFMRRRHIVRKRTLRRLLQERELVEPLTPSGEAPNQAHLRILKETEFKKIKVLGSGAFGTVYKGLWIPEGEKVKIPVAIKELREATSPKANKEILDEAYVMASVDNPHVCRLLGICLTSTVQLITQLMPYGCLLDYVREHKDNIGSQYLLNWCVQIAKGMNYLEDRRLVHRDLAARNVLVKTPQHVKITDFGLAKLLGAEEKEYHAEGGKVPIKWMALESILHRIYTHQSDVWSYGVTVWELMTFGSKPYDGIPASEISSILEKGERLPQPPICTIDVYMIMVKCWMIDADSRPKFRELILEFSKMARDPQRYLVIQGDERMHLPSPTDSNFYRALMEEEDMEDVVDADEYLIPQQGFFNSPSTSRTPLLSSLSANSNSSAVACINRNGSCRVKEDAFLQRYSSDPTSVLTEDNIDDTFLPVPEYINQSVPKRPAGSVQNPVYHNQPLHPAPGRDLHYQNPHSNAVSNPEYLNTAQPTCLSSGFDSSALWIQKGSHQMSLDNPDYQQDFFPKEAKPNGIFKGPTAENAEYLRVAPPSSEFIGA
T2 sequence (P00533 25-1210): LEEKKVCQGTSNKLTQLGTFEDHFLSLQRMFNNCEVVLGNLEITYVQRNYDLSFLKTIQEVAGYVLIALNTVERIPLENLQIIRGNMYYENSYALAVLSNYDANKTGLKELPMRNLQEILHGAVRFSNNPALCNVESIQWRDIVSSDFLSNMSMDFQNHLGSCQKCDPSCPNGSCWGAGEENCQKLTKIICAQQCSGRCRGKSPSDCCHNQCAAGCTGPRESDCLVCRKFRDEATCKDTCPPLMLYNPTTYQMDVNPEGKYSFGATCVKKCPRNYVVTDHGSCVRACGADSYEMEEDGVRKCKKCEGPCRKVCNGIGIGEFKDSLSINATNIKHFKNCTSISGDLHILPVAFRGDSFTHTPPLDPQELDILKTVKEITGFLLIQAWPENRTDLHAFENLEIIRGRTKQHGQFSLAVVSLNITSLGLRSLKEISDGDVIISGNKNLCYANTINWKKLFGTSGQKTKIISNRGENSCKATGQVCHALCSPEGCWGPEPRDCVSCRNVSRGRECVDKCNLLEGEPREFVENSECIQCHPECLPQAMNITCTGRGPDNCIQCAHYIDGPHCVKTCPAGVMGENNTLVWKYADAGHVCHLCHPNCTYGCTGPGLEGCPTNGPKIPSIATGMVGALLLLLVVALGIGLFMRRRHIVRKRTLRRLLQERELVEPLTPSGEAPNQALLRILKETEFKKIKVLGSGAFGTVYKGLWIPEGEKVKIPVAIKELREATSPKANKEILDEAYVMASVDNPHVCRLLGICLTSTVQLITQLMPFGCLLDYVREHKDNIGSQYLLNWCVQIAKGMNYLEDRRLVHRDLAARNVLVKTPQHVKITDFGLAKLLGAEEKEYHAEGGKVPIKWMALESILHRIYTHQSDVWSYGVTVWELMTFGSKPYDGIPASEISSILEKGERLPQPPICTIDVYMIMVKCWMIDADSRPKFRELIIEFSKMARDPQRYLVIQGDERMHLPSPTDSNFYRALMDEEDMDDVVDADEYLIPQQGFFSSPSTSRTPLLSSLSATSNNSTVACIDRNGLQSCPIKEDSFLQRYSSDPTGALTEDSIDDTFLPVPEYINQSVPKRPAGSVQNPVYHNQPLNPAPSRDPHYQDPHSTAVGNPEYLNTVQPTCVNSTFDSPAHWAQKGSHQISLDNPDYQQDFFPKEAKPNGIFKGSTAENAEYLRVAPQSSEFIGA

shift in Tykerb's dose-response curve (EGFR) | Compound | inhibition of epidermal growth factor binding to its receptor (EGF binding site) | CI @ ED90 ([1]; combination with Iressa) | CI @ ED90 ([1]; combination with Tykerb) | DRI @ ED97 ([1]; effect of the test compound on Iressa) | DRI @ ED97 ([1]; effect of the test compound on Tykerb) | DRI (effect of the test compound on Tykerb / Iressa) ([1]; result in words)
– | O=C(NC(=S)Nc1ccc(S(=O)(=O)NCCc2ccccc2)cc1)C1CC1 [AD4-1886] | inhibitor of epidermal growth factor binding to its receptor | – | – | – | – | –
leftward shift (i.e., greater potency) | Cc1ccc2c(C)nc(Nc3nc(-c4ccccc4C)cc(=O)[nH]3)nc2c1 [AD4-11511] | – | 0.93 | 0.87 | 96 | 84 | very high DRI values; also recorded: fairly high DRI

Reference: US20140179681A1, “METHODS AND COMPOSITIONS OF TARGETED DRUG DEVELOPMENT” (priority 2010, published 2014)
